US10369340B2, “Device and method for sustained release of low water solubility therapeutic agent in solubilizer” (N[…], INC., priority 2013, dated 2019)

Key:
[1] = solubility of testosterone in water and in ethanol; assay type: physicochemical; settings: ethanol relative to water
Text: During use, IDD 100 can be used to administer API 200 by inserting IDD 100 into an area of a human anatomy, including for example, subcutaneously. With IDD 100 inserted into the desired anatomical area, portions of solubilizer 210 (with dissolved API 200) that are small enough to pass through channeled member 130 can be released over time into the area of the human anatomy or for systemic circulation. In certain embodiments, the solubility enhancement of API 200 and solubilizer 210 can range from approximately 2×, 3×, 4×, 5×, 6×, 7×, 8×, 9×, 10×, 11×, 12×, 13×, 14×, 15×, 16×, 17×, 18×, 19×, 20×, 21×, 22×, 23×, 24×, 25×, 26×, 27×, 28×, 29×, 30× or higher. In particular embodiments, the solubility enhancement can be up to 1000× and higher.

[2] = cited from earlier work

## C[C@]12CC[C@H]3[C@@H](CCC4=CC(=O)CC[C@@]43C)[C@@H]1CC[C@@H]2O [testosterone]
[1]
  solubility enhancement (increase, ethanol vs water): 20,000 ×
[2]; ethanol
  solubility in ethanol: approximately 750 mg/ml
[2]; water
  native water solubility: 35 µg/mL
